Source: patent publication US5656460A, “α-glycosyl derivative of the catecholamine or its salt, and its preparation and uses” (Kabushiki Kaisha Hayashibara Seibutsu Kagaku Kenkyujo, priority 1992, dated 1997)

Legend:
[1] = Solubility in solvent; type: physicochemical
[2] = Reducing reaction by the Nelson-Somogyi's method; type: physicochemical
Text: The α-glucosyl methyldopa preparations [I] and [II] turn green on the anthrone-sulfuric acid reaction. The preparations are negative on a reducing reaction by the Nelson-Somogy's method;

[3] = test system: α-glucosidase (EC 3.2.1.20); assay: Stability against hydrolysis by α-glucosidase; type: in vitro ADME, pig; details: forms the catecholamine (methyldopa) and D-glucose
Text: (6) Stability against hydrolysis (a) The α-glucosyl methyldopa preparations [I] and [II] are hydrolyzed by α-glucosidase (EC 3.2.1.20) specimen derived from pig liver to form methyldopa and D-glucose;

[4] = test system: β-glucosidase; assay: Stability against hydrolysis by β-glucosidase; type: in vitro ADME
Text: (6) Stability against hydrolysis

[5] = Stability in aqueous solution (coloring degree at 400 nm relating to oxidation); type: physicochemical; details: 100 mM phosphate buffer pH 8.0, 25° C.; for Stability compared with intact methyldopa: up to 9 days; for Coloring degree at 400 nm: 100 ppm
Method: Fifty ml aliquots of 100 mM phosphate buffer (pH 8.0) were distributed into 50 ml-flasks, added with the α-glucosyl methyldopa preparation [I] or [II] to give a concentration of 100 ppm, allowed to stand at 25° C., and sampled at a prescribed time interval to determine the stability of the preparation.
Intact methyldopa was used as a control. Five ml solution was collected from each flask at a prescribed time interval, and subjected to the measurement of the coloring degree at 400 nm relating to the oxidation of methyldopa.

[6] = test system: 7-week-old dd mice; assay: Acute toxicity test (oral, mice); type: in vivo
Method: The α-glucosyl methyldopa preparations [I] and [II] were tested for their acute toxicity by orally administering them to 7-week-old dd mice.

Structure (SMILES)	Solubility in benzen [1]	Solubility in chloroform [1]	Solubility in ethanol [1]	Solubility in ether [1]	Solubility in methanol [1]	Solubility in water [1]	Reducing reaction / reducing activity [2]	Hydrolysis by α-glucosidase [3]	Hydrolysis by β-glucosidase [4]	Stability compared with intact methyldopa [5]	Coloring degree at 400 nm ([5]; day 0)	Coloring degree at 400 nm ([5]; day 1)	Coloring degree at 400 nm ([5]; day 3)	Coloring degree at 400 nm ([5]; day 5)	Coloring degree at 400 nm ([5]; day 9)	Acute toxicity: dose up to which no mouse died [6] [mg/kg]
CC(N)(Cc1ccc(O[C@H]2O[C@H](CO)[C@@H](O)[C@H](O)[C@H]2O)c(O)c1)C(=O)O (stereo partly drawn) [α-glucosyl methyldopa preparation [II], 3-[3-hydroxy-(4-α-D-glucopyranosyl)]-2-methylalanine]	insoluble	insoluble	slightly soluble	insoluble	slightly soluble	readily soluble	negative	hydrolyzed	not hydrolyzed	much stabler than intact methyldopa	0.0	0.0	0.0	0.0	0.0	≥ 5000
CC(N)(Cc1ccc(O)c(O[C@H]2O[C@H](CO)[C@@H](O)[C@H](O)[C@H]2O)c1)C(=O)O (stereo partly drawn) [α-glucosyl methyldopa preparation [I], 3-[4-hydroxy-(3-α-D-glucopyranosyl)]-2-methylalanine]	insoluble	insoluble	slightly soluble	insoluble	slightly soluble	readily soluble	negative	hydrolyzed	not hydrolyzed	much stabler than intact methyldopa	0.0	0.0	0.0	0.0	0.0	≥ 5000
